The values that follow are results of earlier work, collected in patent US8343544B2, “Oral sustained-release tablet” (Kyorin Pharmaceutical Co., Ltd., priority 2003, dated 2013).

For the series the following is noted: conventional preparation.

Regarding `Cc1nccn1CCC(C(N)=O)(c1ccccc1)c1ccccc1` [KRP-197, 4-(2-methyl-1-imidazolyl)-2,2-diphenylbutylamide], the “absorption after an oral administration” value is recorded as “rapidly absorbed”. Further, the half-life entry (oral) was “relatively short”.
